{"source": "patent US6696458B2", "about": "(Super Gen, Inc., priority 2002, dated 2004)", "key": {"[1]": {"system": "human colon cancer xenografts", "details": "cited from earlier work"}, "[2]": {"experiment": "Moisture sorption/desorption on VTI SGA-100 moisture balance", "assay_type": "physicochemical", "details": "for hygroscopicity: judged from sorption 5 to 95% RH", "source_text": "The samples were not dried prior to analysis."}, "[3]": {"experiment": "Storage in closed vial at ambient conditions, XRPD comparison", "assay_type": "physicochemical", "details": "31 days"}, "[4]": {"experiment": "Dehydration/desolvation under vacuum, XRPD comparison", "assay_type": "physicochemical", "source_text": "The characterization of this weight loss as THF solvent is supported by the ^1H NMR data."}, "[5]": {"details": "solubilized by sodium hydroxide in water; cited from earlier work"}}, "data": [{"smiles": "CC[C@@]1(O)C(=O)OCc2c1cc1n(c2=O)Cc2cc3cc4c(cc3nc2-1)OCO4", "note": "[10,11, MD, 10,11-methylendioxy-20(S)-camptothecin]", "values": [{"measurement": "anticancer activity", "setting": "[1]", "value": "high anticancer activity"}]}, {"smiles": "CC[C@@]1(O)C(=O)OCc2c1cc1n(c2=O)Cc2cc3c(N)cccc3nc2-1", "note": "[Form 9AC, 9-Amino-20(S)-Camptothecin]", "values": [{"measurement": "anticancer activity", "setting": "[1]", "value": "high anticancer activity"}]}, {"smiles": "CC[C@@]1(O)C(=O)OCc2c1cc1n(c2=O)Cc2cc3c([N+](=O)[O-])cccc3nc2-1", "note": "[Form A, 9-nitrocamptothecin]", "values": [{"measurement": "total weight gained in the region from 5 to 95% RH", "setting": "[2]; 5 to 95% RH", "value": "about 0.03%"}, {"measurement": "Weight % chg", "setting": "[2]; desorption, RH 4.83 %, 25.03 deg C, elapsed 157.3 min", "value": 0.0275, "unit": "%"}, {"measurement": "Weight % chg", "setting": "[2]; desorption, RH 15.00 %, 25.03 deg C, elapsed 150.3 min", "value": 0.0307, "unit": "%"}, {"measurement": "Weight % chg", "setting": "[2]; desorption, RH 24.95 %, 25.02 deg C, elapsed 143.3 min", "value": 0.0324, "unit": "%"}, {"measurement": "Weight % chg", "setting": "[2]; desorption, RH 34.97 %, 25.02 deg C, elapsed 135.8 min", "value": 0.0348, "unit": "%"}, {"measurement": "Weight % chg", "setting": "[2]; desorption, RH 45.05 %, 25.02 deg C, elapsed 127.8 min", "value": 0.0372, "unit": "%"}, {"measurement": "Weight % chg", "setting": "[2]; desorption, RH 54.99 %, 25.02 deg C, elapsed 119.8 min", "value": 0.0381, "unit": "%"}, {"measurement": "Weight % chg", "setting": "[2]; desorption, RH 65.02 %, 25.02 deg C, elapsed 111.8 min", "value": 0.0405, "unit": "%"}, {"measurement": "Weight % chg", "setting": "[2]; desorption, RH 75.18 %, 25.03 deg C, elapsed 103.8 min", "value": 0.0429, "unit": "%"}, {"measurement": "Weight % chg", "setting": "[2]; desorption, RH 84.95 %, 25.03 deg C, elapsed 94.8 min", "value": 0.0429, "unit": "%"}, {"measurement": "water gained upon equilibration to 5% RH", "setting": "[2]; equilibration to 5% RH", "value": 0.01, "unit": "%"}, {"measurement": "hygroscopicity", "setting": "[2]", "value": "not hygroscopic"}, {"measurement": "Weight % chg", "setting": "[2]; sorption, RH 5.16 %, 25.02 deg C, elapsed 11.1 min", "value": 0.0131, "unit": "%"}, {"measurement": "Weight % chg", "setting": "[2]; sorption, RH 15.27 %, 25.02 deg C, elapsed 19.6 min", "value": 0.0149, "unit": "%"}, {"measurement": "Weight % chg", "setting": "[2]; sorption, RH 24.98 %, 25.03 deg C, elapsed 27.2 min", "value": 0.0169, "unit": "%"}, {"measurement": "Weight % chg", "setting": "[2]; sorption, RH 35.07 %, 25.03 deg C, elapsed 34.7 min", "value": 0.0210, "unit": "%"}, {"measurement": "Weight % chg", "setting": "[2]; sorption, RH 45.07 %, 25.03 deg C, elapsed 42.2 min", "value": 0.0242, "unit": "%"}, {"measurement": "Weight % chg", "setting": "[2]; sorption, RH 55.00 %, 25.03 deg C, elapsed 50.2 min", "value": 0.0283, "unit": "%"}, {"measurement": "Weight % chg", "setting": "[2]; sorption, RH 64.96 %, 25.03 deg C, elapsed 59.2 min", "value": 0.0315, "unit": "%"}, {"measurement": "Weight % chg", "setting": "[2]; sorption, RH 74.75 %, 25.03 deg C, elapsed 68.3 min", "value": 0.0347, "unit": "%"}, {"measurement": "Weight % chg", "setting": "[2]; sorption, RH 84.64 %, 25.03 deg C, elapsed 77.3 min", "value": 0.0387, "unit": "%"}, {"measurement": "Weight % chg", "setting": "[2]; sorption, RH 94.90 %, 25.03 deg C, elapsed 86.3 min", "value": 0.0421, "unit": "%"}, {"measurement": "Weight % chg", "setting": "[2]; start, RH 14.41 %, 24.99 deg C, elapsed 0.0 min", "value": 0.0000, "unit": "%"}]}, {"smiles": "CC[C@@]1(O)C(=O)OCc2c1cc1n(c2=O)Cc2cc3c([N+](=O)[O-])cccc3nc2-1", "note": "[Form B, 9-nitrocamptothecin]", "values": [{"measurement": "stability of crystalline form on storage (XRPD pattern unchanged)", "setting": "[3]", "value": "relatively stable"}, {"measurement": "hygroscopicity", "setting": "[2]", "value": "relatively hygroscopic"}, {"measurement": "Weight % chg", "setting": "[2]; start, RH 9.87 %, 25.03 deg C, elapsed 0.0 min", "value": 0.0000, "unit": "%"}]}, {"smiles": "CC[C@@]1(O)C(=O)OCc2c1cc1n(c2=O)Cc2cc3c([N+](=O)[O-])cccc3nc2-1", "note": "[Form C, 9-nitrocamptothecin]", "values": [{"measurement": "form change on attempted desolvation", "setting": "[4]", "value": "becomes amorphous"}]}, {"smiles": "CC[C@@](O)(C(=O)[O-])c1cc2n(c(=O)c1CO)Cc1cc3ccccc3nc1-2.[Na+]", "note": "[Sodium camptothecin]", "values": [{"measurement": "antineoplastic activity in clinical trials", "setting": "[5]", "value": "antineoplastic activity"}]}]}
